ChEMBL document CHEMBL4184275 (Bioorg Med Chem Lett, 2018)
Bridge positions count the residues as written; N and C are the ends. Peptide text beside a SMILES is read from it.

Tests used:
[1] = molecular target: T1, Prolyl oligopeptidase family protein (Flavobacterium psychrophilum (strain JIP02/86 / ATCC 49511), UniProt A6H249); experiment: Inhibition of Flavobacterium POP preincubated for 5 mins followed by Z-Gly-Pro-pNA substrate measured after 30 mins
T1 sequence (A6H249 whole entry): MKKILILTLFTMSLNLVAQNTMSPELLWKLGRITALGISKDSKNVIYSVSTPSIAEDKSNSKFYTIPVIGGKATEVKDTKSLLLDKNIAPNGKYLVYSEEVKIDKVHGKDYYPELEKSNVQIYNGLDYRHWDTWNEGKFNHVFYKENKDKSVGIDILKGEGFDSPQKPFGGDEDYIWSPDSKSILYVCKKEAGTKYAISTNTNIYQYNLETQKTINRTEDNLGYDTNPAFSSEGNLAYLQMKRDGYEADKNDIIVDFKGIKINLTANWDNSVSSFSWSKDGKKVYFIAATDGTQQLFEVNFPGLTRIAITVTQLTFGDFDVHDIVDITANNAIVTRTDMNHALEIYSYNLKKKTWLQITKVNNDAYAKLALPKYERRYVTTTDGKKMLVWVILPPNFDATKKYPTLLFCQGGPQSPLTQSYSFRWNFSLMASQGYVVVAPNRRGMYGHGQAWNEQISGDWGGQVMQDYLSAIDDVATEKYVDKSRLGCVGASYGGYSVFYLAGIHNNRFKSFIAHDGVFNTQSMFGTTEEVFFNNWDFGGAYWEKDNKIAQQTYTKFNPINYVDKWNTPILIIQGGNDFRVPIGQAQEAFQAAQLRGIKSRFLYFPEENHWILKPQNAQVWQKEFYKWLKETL

[2] = tested on: MCF7; experiment: Antiproliferative activity against human MCF7 cells; type: functional, cell-based
[3] = tested on: HL-60; experiment: cells; conditions: Homo sapiens
Description: Antiproliferative activity against human HL60 cells

[4] = molecular target: T2, Prolyl endopeptidase (Homo sapiens, UniProt P48147); experiment: Inhibition of prolyl oligopeptidase (unknown origin)
T2 sequence (P48147 whole entry): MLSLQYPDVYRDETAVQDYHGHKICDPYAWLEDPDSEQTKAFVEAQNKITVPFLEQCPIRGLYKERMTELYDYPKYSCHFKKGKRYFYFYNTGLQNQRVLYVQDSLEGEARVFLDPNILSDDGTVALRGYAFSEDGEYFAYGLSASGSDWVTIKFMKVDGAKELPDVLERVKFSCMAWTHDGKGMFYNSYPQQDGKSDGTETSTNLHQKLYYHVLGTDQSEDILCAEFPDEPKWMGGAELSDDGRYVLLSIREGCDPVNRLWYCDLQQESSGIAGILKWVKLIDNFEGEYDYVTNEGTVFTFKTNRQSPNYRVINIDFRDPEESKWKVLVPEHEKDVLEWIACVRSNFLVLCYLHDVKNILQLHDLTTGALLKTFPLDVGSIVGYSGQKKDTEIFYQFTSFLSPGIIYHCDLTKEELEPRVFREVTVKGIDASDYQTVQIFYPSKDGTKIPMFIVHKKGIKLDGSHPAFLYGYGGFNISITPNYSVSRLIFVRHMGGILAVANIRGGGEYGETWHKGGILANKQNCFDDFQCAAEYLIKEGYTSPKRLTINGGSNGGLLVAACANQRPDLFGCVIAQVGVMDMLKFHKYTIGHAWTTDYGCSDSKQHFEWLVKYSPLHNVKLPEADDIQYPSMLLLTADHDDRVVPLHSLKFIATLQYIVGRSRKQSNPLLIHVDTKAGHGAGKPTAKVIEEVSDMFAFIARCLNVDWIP

For `CC(=O)Oc1c(OC(C)=O)c2c3cc(O)c(O)cc3oc2c2oc3cc(O)c(O)cc3c12`, the IC50 [1] was 770 nM, the IC50 [2] was 26900 nM and the IC50 [3] was 2000 nM.
Molecule `CC[C@H](C)[C@H](NC(=O)[C@H](Cc1ccccc1)NC(=O)[C@@H](NC(=O)[C@H](Cc1cnc[nH]1)NC(=O)CNC(=O)CNC(=O)[C@H](Cc1ccccc1)NC(=O)[C@H](CC(C)C)NC(=O)[C@@H]1CC(=O)NCC(=O)N[C@@H](Cc2ccc(O)cc2)C(=O)N2CCC[C@H]2C(=O)N[C@@H](Cc2c[nH]c3ccccc23)C(=O)N[C@@H](Cc2c[nH]c3ccccc23)C(=O)N[C@@H](CC(=O)O)C(=O)N[C@@H](Cc2ccc(O)cc2)C(=O)N[C@@H](CCCNC(=N)N)C(=O)N1)[C@@H](C)O)C(=O)N[C@@H](CO)C(=O)N1CCC[C@H]1C(=O)O` (GYPWWDYRDLFGGHTFISP-OH; lactam N-9) has an IC50 [4] of 950 nM and an IC50 [3] of over 20000 nM.
For `CC[C@@]1(O)C(=O)OCc2c1cc1n(c2=O)Cc2cc3ccccc3nc2-1` [CAMPTOTHECIN], the IC50 [3] was 6.7 nM.
`CC(=O)Oc1c2oc3cc(O)c(O)cc3c2c(OC(C)=O)c2oc3cc(O)c(O)cc3c12` [POLYOZELLIN] was tested, and the IC50 [1] was 1200 nM, the IC50 [2] was 35100 nM and the IC50 [3] was 1100 nM.
